Experimental data: patent publication US20230381328A1, “COMPOUND FOR THE PREVENTION OR TREATMENT OF MYASTHENIA GRAVIS” (ABLEVIA BIOTECH GMBH, priority 2020, published 2023)

system: myasthenogenic antibody mAB 198; test: Peptide microarray mimotope screen, binding of mAB 198 to linear and cyclic peptides (fluorescence readout); parameters: species or system rat; conditions: cyclic mimotopes; binding of mAB 198, relative fluorescent signal after normalization against background
From the text: A custom peptide array of 30000 peptides was synthesized, with peptides of 7-19 amino acids in size; the peptides were based on substitution analyses of 176 AChR-MIR peptides with exchanges of each amino acid positions by each of the 20 common amino acids. Peptides were synthesized directly on a microarray, and screened with monoclonal antibody mAB 198 in order to obtain mimotopes with a binding strength which was improved over the human AChR alpha chain MIR-containing sequence […] (Tzartos et al, 1991; Luo et al, 2009) and over a previously published mimotope sequence ([…]), that was derived from Torpedo AchR with the help of antibody mAB 132A (Trinh et al, 2014). In particular, the wild type AChR-MIR sequence is known to structurally mimic to a certain extent the epitope recognized by myasthenogenic, unwanted and disease-causing antibodies from patients. The mimotope peptide library was designed by permutation of each single amino acid position of these two sequences with all natural amino acids in order to provide a maximally diversified collection of peptide variants. All peptides were synthesized in doublets as linear and as cyclic peptides. The aim was to obtain peptides (mimotopes) that mimic the natural epitope of myasthenogenic antibodies.
For the mimotope screen, the antibody mAB 198 (Absolute Antibody Ltd, UK) was used. This is a prototype antibody that was generated in rats using human AChR (Tzartos et al, 1983; Asher et al, 1993). […] Therefore, mAB198 was used as a surrogate probe to screen for new mimotopes that are capable of mimicking the corresponding AChR-MIR epitope or portions of the epitope.
As a readout, binding of mAB 198 to the 30000 linear and cyclic peptides was measured by fluorescence readout, and peptides were ranked according to their relative fluorescent signal after normalization against the background.
The top-ranked 100 linear and cyclic mimotopes are listed in Table 1 and Table 2 above, respectively.

relative signal [%] | Substance
30.2 | 110 (DVRLRVNPADY) [compound 110]
8.7 | 195 (SLRWNPADYHG) [compound 195]
9.0 | 192 (WNPDDYR) [compound 192]
28.2 | 113 (LRRNPAD) [compound 113]
27.4 | 116 (NPADYRG) [compound 116]
8.5 | 200 (GGSLRLNPADY) [compound 200]
9.4 | 188 (SLYWNPADY) [compound 188]
14.7 | 142 (VRLRRNPAD) [compound 142]
10.0 | 177 (GSLRWNPADYN) [compound 177]
45.1 | 103 (LRVNPADYG) [compound 103]
9.7 | 185 (RLRWNPADYGS) [compound 185]
9.1 | 190 (RWNPADF) [compound 190]
8.8 | 194 (DVRLRQNPADY) [compound 194]
10.6 | 166 (RLRQNPADY) [compound 166]
11.5 | 162 (RIRWNPADY) [compound 162]
32.7 | 108 (RLRGNPADY) [compound 108]
19.6 | 135 (GGSLRGNPADY) [compound 135]
18.7 | 137 (RVNPADY) [compound 137]
23.1 | 126 (RINPADYGG) [compound 126]
31.4 | 109 (DVRLRINPADY) [compound 109]
12.6 | 150 (NPADYGD) [compound 150]
8.6 | 198 (LRFNPAD) [compound 198]
9.7 | 186 (GSLRWNPADYQ) [compound 186]
28.9 | 111 (RINPADY) [compound 111]

relative signal [%] | Substance
11.5 | 160 (ALRWNPADY) [compound 160]
10.7 | 165 (QLRWNPADY) [compound 165]
22.2 | 129 (RGNPADYGG) [compound 129]
23.5 | 124 (RRNPADY) [compound 124]
9.0 | 191 (RLRGNPADYGG) [compound 191]
13.7 | 145 (RLYWNPADY) [compound 145]
42.3 | 105 (RLNPADY) [compound 105]
26.5 | 117 (SLRVNPADY) [compound 117]
43.2 | 104 (WIDVRLRGNPA) [compound 104]
14.6 | 143 (RTNPADY) [compound 143]
10.0 | 179 (LRPNPADYG) [compound 179]
12.2 | 155 (SLRYNPADY) [compound 155]
10.3 | 172 (LRWNPADYR) [compound 172]
10.4 | 170 (GSLRFNPADYG) [compound 170]
9.8 | 182 (RSRWNPADY) [compound 182]
13.7 | 146 (GNPADYGGI) [compound 146]
10.5 | 169 (DVRLRYNPADY) [compound 169]
14.5 | 144 (GGSLRFNPADY) [compound 144]
37.3 | 107 (RLRLNPADY) [compound 107]
12.4 | 154 (GSLRWNPADYP) [compound 154]
9.8 | 183 (RLRPNPADY) [compound 183]
11.8 | 159 (NPADYGY) [compound 159]
8.6 | 199 (RLRTNPADY) [compound 199]

same assay, conditions: linear mimotopes; binding of mAB 198, relative fluorescent signal after normalization against background

relative signal [%] | Substance
13.7 | 34 (WNPADYGHI) [compound 34]
6.8 | 86 (DVRLRWNPSDY) [compound 86]
17.3 | 25 (LRLNPADYG) [compound 25]
12.6 | 41 (RWNPADF) [compound 41]
6.5 | 93 (LRWNPADYPGI) [compound 93]
13.0 | 39 (GGGSLRFNP) [compound 39]
16.7 | 26 (LLGGGSLRFNP) [compound 26]
100.0 | 1 (LRRNPAD) [compound 1]
40.6 | 6 (WNPADYR) [compound 6]
15.3 | 30 (LRWNPADYH) [compound 30]
8.1 | 71 (GGGSLRFNPAD) [compound 71]
20.2 | 20 (RLHWNPADY) [compound 20]
7.4 | 79 (HWNPADY) [compound 79]
13.4 | 37 (QWIDVRLRYNP) [compound 37]
10.3 | 55 (NPADYDG) [compound 55]
8.0 | 73 (NPADYGI) [compound 73]
27.1 | 11 (VRLRFNP) [compound 11]
9.5 | 59 (GSLRRNPAD) [compound 59]
6.5 | 94 (RLRYNPADY) [compound 94]
12.6 | 40 (LRINPADYG) [compound 40]
14.9 | 32 (RLRVNPADY) [compound 32]
7.9 | 74 (IDVRLRFNPAD) [compound 74]
6.7 | 88 (HRLRWNPAD) [compound 88]
15.7 | 29 (LHWNPAD) [compound 29]

relative signal [%] | Substance
34.4 | 8 (GSLRYNP) [compound 8]
8.8 | 67 (WNPDDYGHV) [compound 67]
6.0 | 100 (NPADYGV) [compound 100]
48.0 | 5 (LRGNPAD) [compound 5]
15.9 | 28 (LRYNPAD) [compound 28]
10.0 | 56 (DVRLRFNPADY) [compound 56]
6.8 | 85 (VDCNLKFNP) [compound 85]
9.4 | 60 (WNPADYH) [compound 60]
25.0 | 14 (VRLRRNPAD) [compound 14]
7.2 | 81 (LRWNPADYHGI) [compound 81]
9.9 | 57 (RRNPADY) [compound 57]
12.2 | 44 (RINPADY) [compound 44]
11.4 | 46 (RLRFNPADY) [compound 46]
7.1 | 82 (GGGSLRYNP) [compound 82]
6.6 | 91 (HSLRWNPAD) [compound 91]
10.6 | 54 (SLRWNPADYHG) [compound 54]
13.6 | 36 (SLHWNPADY) [compound 36]
10.9 | 51 (QWVDYNLKFNP) [compound 51]
6.9 | 84 (RGNPADY) [compound 84]
6.9 | 83 (RLRGNPADY) [compound 83]
21.3 | 17 (NPDDYHG) [compound 17]
28.3 | 10 (LRRNPADYG) [compound 10]
18.1 | 23 (NPADYGH) [compound 23]
7.6 | 77 (YNLPWNP) [compound 77]
